Results on 38 compounds are retold here after the PolyMetriX glass transition set.

Take `*C(=O)c1ccc2c(c1)C(=O)N(C1CCC(CC3CCC(N4C(=O)c5ccc(*)cc5C4=O)CC3)CC1)C2=O` (repeat unit): the glass transition temperature was found to be 254.00 °C.

On to `*C(=S)Nc1ccc(Oc2ccc(NC(=S)N3C(=O)c4ccc(C(=O)c5ccc6c(c5)C(=O)N(*)C6=O)cc4C3=O)cc2)cc1` (repeat unit), for which the glass transition temperature is 262.00 °C.

Regarding `*CC1CC2CC1C1CCC(CN3C(=O)c4ccc(C(=O)c5ccc6c(c5)C(=O)N(*)C6=O)cc4C3=O)C21` (repeat unit), the glass transition temperature was found to be 217.00 °C.

The compound `*CC1CCCC(CN2C(=O)c3ccc(Oc4ccc5c(c4)C(=O)N(*)C5=O)cc3C2=O)C1` (repeat unit) yielded a glass transition temperature of 199.00 °C.

For the compound `*CCCCCCCCN1C(=O)c2ccc(Oc3ccc4c(c3)C(=O)N(*)C4=O)cc2C1=O` (repeat unit), the glass transition temperature was determined as 145.00 °C.

Compound `*CCCCCCCN1C(=O)c2ccc(Oc3ccc4c(c3)C(=O)N(*)C4=O)cc2C1=O` (repeat unit) displayed a glass transition temperature of 110.00 °C.

`*OS(=O)(=O)c1ccc(*)cc1` (repeat unit) returned a glass transition temperature of 119.00 °C.

As to `*Oc1ccc(OC(=O)c2cccc(Sc3ccc(OC(=O)c4ccc(C(=O)Oc5ccc(Sc6cccc(C(*)=O)c6)cc5)cc4)cc3)c2)cc1-c1ccccc1` (repeat unit), the glass transition temperature worked out at 128.00 °C.

The compound `*Oc1ccc(Oc2ccc(/C=N/CCCCCCCCCC/N=C/c3ccc(*)cc3)cc2)cc1` (repeat unit) yielded a glass transition temperature of 108.00 °C.

In the case of `*Oc1ccc(Oc2ccc(/C=N/CCCCCCCCCCCC/N=C/c3ccc(*)cc3)cc2)cc1` (repeat unit), the glass transition temperature worked out at 118.00 °C.

`*Oc1ccc(Oc2ccc(/C=N/c3ccc(/N=C/c4ccc(*)cc4)cc3)cc2)cc1` (repeat unit) came in with a glass transition temperature of 117.00 °C.

`*Oc1ccc(Oc2ccc(OC(*)=O)cc2)cc1` (repeat unit) gave a glass transition temperature of 118.00 °C.

Compound `*Oc1ccc(Oc2ccc(OC(=O)c3ccc(C(c4ccc(C(*)=O)cc4)(C(F)(F)F)C(F)(F)F)cc3)cc2)cc1` (repeat unit) displayed a glass transition temperature of 215.00 °C.

The compound `*Oc1ccc(Oc2ccc(OC(=O)c3cccc(Oc4ccc(Oc5cccc(C(*)=O)c5)cc4)c3)cc2)cc1` (repeat unit) returned a glass transition temperature of 104.00 °C.

Regarding `*Oc1ccc(Oc2ccc(Oc3ccc(Oc4ccc(OC(=O)c5cccc(C(*)=O)c5)cc4)cc3)cc2)cc1` (repeat unit), the glass transition temperature is 134.00 °C.

Compound `*Oc1ccc(Oc2cccc(*)n2)cc1` (repeat unit) came in with a glass transition temperature of 100.00 °C.

Compound `*Oc1ccc(S(=O)(=O)c2ccc(OC(=O)c3cccc(C(*)=O)c3)cc2)cc1` (repeat unit) returned a glass transition temperature of 249.00 °C.

As for `*Oc1ccc(Sc2ccc(Oc3ccc4c(=O)n5c6cc(Oc7ccc8c(c7)nc7c9ccc(*)c%10cccc(c(=O)n87)c%109)ccc6nc5c5cccc3c45)cc2)cc1` (repeat unit), the glass transition temperature stood at 346.00 °C.

The compound `*c1cc(Br)c(Oc2c(Br)cc(N3C(=O)c4ccc(Oc5ccc6c(c5)C(=O)N(*)C6=O)cc4C3=O)cc2Br)c(Br)c1` (repeat unit) showed a glass transition temperature of 283.00 °C.

As for `*c1cc(C(c2ccc(O)c(N3C(=O)c4ccc(Oc5ccc6c(c5)C(=O)N(*)C6=O)cc4C3=O)c2)(C(F)(F)F)C(F)(F)F)ccc1O` (repeat unit), the glass transition temperature was determined as 266.00 °C.

With `*c1ccc(-c2ccc(N3C(=O)c4ccc(Oc5ccc(Oc6ccc7c(c6)C(=O)N(*)C7=O)cc5)cc4C3=O)cc2)cc1` (repeat unit), the glass transition temperature came out at 266.00 °C.

In turn, `*c1ccc(-c2ccc(N3C(=O)c4ccc(Oc5ccc(Sc6ccc(Oc7ccc8c(c7)C(=O)N(*)C8=O)cc6)cc5)cc4C3=O)cc2)cc1` (repeat unit) had a glass transition temperature of 257.00 °C.

`*c1ccc(C(c2ccc(N3C(=O)c4ccc(Oc5ccc6c(c5)C(=O)N(*)C6=O)cc4C3=O)cc2)(C(F)(F)F)C(F)(F)F)cc1` (repeat unit) showed a glass transition temperature of 305.00 °C.

The compound `*c1ccc(C(c2ccccc2)(c2ccc(N3C(=O)c4ccc(Oc5ccc6c(c5)C(=O)N(*)C6=O)cc4C3=O)cc2)C(F)(F)F)cc1` (repeat unit) showed a glass transition temperature of 293.00 °C.

The compound `*c1ccc(N2C(=O)c3ccc(Oc4ccc(Sc5ccc(Oc6ccc7c(c6)C(=O)N(*)C7=O)cc5)cc4)cc3C2=O)cc1` (repeat unit) gave a glass transition temperature of 238.00 °C.

`*c1ccc(Oc2ccc(N3C(=O)c4ccc(Oc5ccc(Oc6ccc(Oc7ccc8c(c7)C(=O)N(*)C8=O)cc6)cc5)cc4C3=O)cc2)cc1` (repeat unit) had a glass transition temperature of 215.00 °C.

The compound `*c1ccc(Oc2ccc(N3C(=O)c4cccc(Oc5ccc(S(=O)(=O)c6ccc(Oc7cccc8c7C(=O)N(*)C8=O)cc6)cc5)c4C3=O)cc2)cc1` (repeat unit) registered a glass transition temperature of 267.00 °C.

Take `*c1ccc(Oc2ccc(Oc3ccc(N4C(=O)c5ccc(Oc6ccc(Oc7ccc(Oc8ccc9c(c8)C(=O)N(*)C9=O)cc7)cc6)cc5C4=O)cc3)cc2)cc1` (repeat unit): the glass transition temperature was 203.00 °C.

In turn, `*c1ccc(Oc2ccc(Oc3ccc(Oc4ccc(N5C(=O)c6ccc(Oc7ccc(Oc8ccc9c(c8)C(=O)N(*)C9=O)cc7)cc6C5=O)cc4)cc3)cc2)cc1` (repeat unit) displayed a glass transition temperature of 210.00 °C.

In the case of `*c1ccc(Oc2ccc(S(=O)(=O)c3ccc(Oc4ccc(N5C(=O)c6ccc(Oc7ccc(Oc8ccc9c(c8)C(=O)N(*)C9=O)cc7)cc6C5=O)cc4)cc3)cc2)cc1` (repeat unit), the glass transition temperature amounted to 201.00 °C.

`*c1ccc(Oc2ccc(Sc3ccc(Oc4ccc(N5C(=O)c6ccc(Oc7ccc(Oc8ccc(Oc9ccc%10c(c9)C(=O)N(*)C%10=O)cc8)cc7)cc6C5=O)cc4)cc3)cc2)cc1` (repeat unit): the glass transition temperature was 194.00 °C.

Take `*c1ccc(Oc2cccc(Oc3ccc(N4C(=O)c5cccc(Oc6ccc(S(=O)(=O)c7ccc(Oc8cccc9c8C(=O)N(*)C9=O)cc7)cc6)c5C4=O)cc3)c2)cc1` (repeat unit): the glass transition temperature is 230.00 °C.

In turn, `*c1cccc(N2C(=O)c3ccc(Oc4ccc(Oc5ccc(Oc6ccc7c(c6)C(=O)N(*)C7=O)cc5)cc4)cc3C2=O)c1` (repeat unit) registered a glass transition temperature of 227.00 °C.

Consider `*c1cccc(N2C(=O)c3ccc(Oc4ccc(S(=O)(=O)c5ccc(Oc6ccc7c(c6)C(=O)N(*)C7=O)cc5)cc4)cc3C2=O)c1` (repeat unit), for which the glass transition temperature stood at 265.00 °C.

`*c1cccc(N2C(=O)c3ccc(Oc4ccc(Sc5ccc(Oc6ccc7c(c6)C(=O)N(*)C7=O)cc5)cc4)cc3C2=O)c1` (repeat unit) displayed a glass transition temperature of 209.00 °C.

Compound `*c1cccc(N2C(=O)c3cccc(Oc4ccc(Oc5ccc(Oc6cccc7c6C(=O)N(*)C7=O)cc5)cc4)c3C2=O)c1` (repeat unit) displayed a glass transition temperature of 238.00 °C.

`*c1cccc(N2C(=O)c3cccc(Oc4ccc(S(=O)(=O)c5ccc(Oc6cccc7c6C(=O)N(*)C7=O)cc5)cc4)c3C2=O)c1` (repeat unit) had a glass transition temperature of 266.00 °C.

Regarding `*c1cccc(S(=O)(=O)c2cccc(N3C(=O)c4ccc(Oc5ccc(S(=O)(=O)c6ccc(Oc7ccc8c(c7)C(=O)N(*)C8=O)cc6)cc5)cc4C3=O)c2)c1` (repeat unit), the glass transition temperature was found to be 205.00 °C.
